Test results as given in US8980846B2, “Composition containing styraxlignolide A or the aglycone thereof as an active ingredient for preventing or treating asthma” (Korea Research Institute of Bioscience and Biotechnology, priority 2010, dated 2015).

Assays:
[1] = Body weight in asthma-induced mice; type: in vivo, Balb/c female mice; details: 3 mg/kg PO 1 hour prior to ovalbumin inhalation
Procedure: (§1) To prepare bronchial asthma-induced experimental animals, six-week-old Balb/c female mice of mean weight about 20 g were used. After one week of adaptation, individuals which had no observed abnormality on a basic physical examination were targeted. 200 μL of phosphate buffered saline (PBS)(pH 7.4) in which 2 mg of aluminum hydroxide (A8222, Sigma, St. Louis, Mo.) and 20 μg of ovalbumin (A5503, Sigma, St. Louis, Mo.) were suspended was injected into the peritoneal cavity at two-week intervals to result in sensitization. On days 28 to 30 after the first intraperitoneal administration of ovalbumin, inhalation challenge was performed for 30 min with 1% ovalbumin using an ultrasonic atomizer. 24 hours after the last antigen administration, airway hyperresponsiveness was measured. After 24 hours, a lethal dose of pentobarbital (Entobar®, Hanlim Pharm Co., Ltd.) was administered, body weight measurement and bronchotomy were performed, and bronchoalveolar lavage was performed with a total 1.2 mL of physiological saline, and then, samples were collected. […] Eight white mice were used for each group. Experimental groups for homoegonol were a group (hE7.5) in which animals were orally administered with 7.5 mg/kg homoegonol 1 hour prior to ovalbumin inhalation, a group (hE15) in which animals were orally administered with 15 mg/kg homoegonol 1 hour prior to ovalbumin inhalation, and a group (hE30) in which animals were orally administered with 30 mg/kg homoegonol 1 hour prior to ovalbumin inhalation, and five white mice were used for each group.
(§2) To determine an effect of styraxlignolide A on reduction in body weight in asthma-induced mice, body weight of each mouse prepared in Example 2 was measured. For statistical analyses for all measurements, means and standard errors (mean±S.E.) according to a number of variables were calculated, and comparison between each group was analyzed by performing a Mann-whitney U test using SPSS 10.0. Statically significance was accepted at p<0.05.
as §2, with “homoegonol” for “styraxlignolide A”

[2] = test system: airway hyperresponsiveness; assay: Airway hyperresponsiveness, Penh by one chamber plethysmography after methacholine inhalation; type: in vivo, Balb/c female mice; details: asthma-induced mice, homoegonol study, 3 mg/kg PO
Procedure: as §1, with “Experimental groups for homoegonol were a group (hE7.5) in which animals were orally administered with 7.5 mg/kg homoegonol 1 hour prior to ovalbumin inhalation, a group (hE15) in which animals were orally administered with 15 mg/kg homoegonol 1 hour prior to ovalbumin inhalation, and a group (hE30) in which animals were orally administered with 30 mg/kg homoegonol 1 hour prior to ovalbumin inhalation, and five white mice were used for each group.” left out
The effect of styraxlignolide A on airway hyperresponsiveness caused by asthma occurrence was examined by measuring airway resistance with one chamber plethysmography (All medicus, Seoul, Republic of Korea) and degree of airway resistance was assessed by measuring Penh (enhanced pause) values. The baseline value was measured under a normal respiratory condition, and then, PBS was inhaled using an ultrasonic atomizer for 3 min, and Penh values were measured over 3 min. […] Louis, Mo.) which is used in general methods for diagnosis of bronchial asthma were inhaled and Penh values were measured. Penh value is shown in the following Equation 1, and the resulting Penh value was expressed as a percent increase in Penh after inhalation of each concentration of methacholine. The baseline Penh (saline challenge) was expressed as 100%.
Te: expiratory time (sec), the time from inspiration to the next inspiration
RT: relaxation time, the elapsed time between the beginning of the expiration and the moment when the remaining 30% of the tidal volume has been reached during expiration
PEF: Peak expiration flow
PIF: Peak inspiration flow
To examine the effect of homoegonol on airway hyperresponsiveness caused by asthma occurrence, Penh value was measured according to the method in <Experimental Example 2>.

[3] = test system: inflammatory cells in bronchoalveolar lavage fluid; assay: Inflammatory cell counts in bronchoalveolar lavage fluid (Diff-Quick staining); type: in vivo, Balb/c female mice; details: asthma-induced mice
Procedure: as §1
Bronchoalveolar lavage fluid was collected from individuals of each experimental group in <Example 2> and right after the collection, fluid was stained with trypan blue. The number of total cells except dead cells was calculated using a hemocytometer. Then, Diff-Quick staining (Sysmex, Swizerland) was performed after smear preparation with Cytospin II, and eosinophils and other inflammatory cells were differentially counted.
To examine the effect of homoegonol on asthma, variation in the numbers of asthma-related inflammatory cells was measured according to the method in <Experimental Example 3>.

[4] = test system: alanine aminotransferase (ALT) and aspartate aminotransferase (AST) in serum; type: in vivo; details: mouse, in vivo, po, 3 mg/kg
Procedure: as §1
To examine liver toxicity of styraxlignolide A, a commercially available ELISA kit (BECKMAN Coulter, Inc., Fullerton, Calif., USA) was used to measure alanine aminotransferase (ALT) and aspartate aminotransferase (AST) in serum.

[5] = test system: goblet cells; assay: Ratio of goblet cells to bronchial epithelial cells (PAS staining); type: in vivo, Balb/c female mice; details: asthma-induced mice, styraxlignolide A study; 3 mg/kg PO 1 hour prior to ovalbumin inhalation
Procedure: as §1
Lungs removed from each individual were subjected to conventional formalin fixation and paraffin embedding, and permanent section slides of 4 μm thickness were prepared, and periodic acid Schiff (PAS) staining was performed to determine goblet cells. Proliferation of goblet cells was assessed by measuring the ratio of goblet cells to bronchial epithelial cells.
In accordance with the method in <Experimental Example 7-2>, the ratio of goblet cells which were determined by periodic acid-Schiff staining to bronchial epithelial cells were measured to assess proliferation of goblet cells.

[6] = test system: fibrosis in subsegmental bronchi; assay: Fibrosis in subsegmental bronchi (Masson's trichrome staining); type: in vivo, Balb/c female mice; details: asthma-induced mice, styraxlignolide A study; 3 mg/kg PO 1 hour prior to ovalbumin inhalation
Procedure: as §1

[7] = test system: TGF-β1; assay: TGF-β1 in bronchoalveolar lavage fluid; type: in vivo, Balb/c female mice; details: asthma-induced mice, homoegonol study; 3 mg/kg PO
Procedure: as §1
(§3) To examine the effect of homoegonol on airway remodeling, generation of TGF-β1 and IL-17 in bronchoalveolar lavage fluid was measured.

[8] = test system: IL-17; assay: IL-17 in bronchoalveolar lavage fluid; type: in vivo, Balb/c female mice; details: asthma-induced mice, homoegonol study; 3 mg/kg PO
Procedure: as §1, §3

[9] = test system: inflammatory cells in bronchoalveolar lavage fluid; assay: Inflammatory cell counts in bronchoalveolar lavage fluid (Diff-Quick staining); type: in vivo, Balb/c female mice; details: asthma-induced mice; remark: listed apart in the source
[10] = test system: ovalbumin-specific IgE; assay: IgE levels in serum and bronchoalveolar lavage fluid (ELISA); type: in vivo, Balb/c female mice; details: asthma-induced mice, homoegonol study, 3 mg/kg PO
[11] = test system: inflammatory cells in the airway mucosa; assay: Inflammatory cell infiltration in airway mucosa, inflammatory index (H&E staining); type: in vivo, Balb/c female mice; details: asthma-induced mice, scale 0-4
[12] = test system: goblet cells; assay: Ratio of goblet cells to bronchial epithelial cells (PAS staining); type: in vivo, Balb/c female mice; details: asthma-induced mice, homoegonol study, 3 mg/kg PO
[13] = styraxlignolide A study, 3 mg/kg PO 1 hour prior to ovalbumin inhalation
[14] = homoegonol study, 3 mg/kg PO, bronchoalveolar lavage fluid, 3 mg/kg
[15] = homoegonol study, 3 mg/kg PO, 3 mg/kg

Q: For C[C@@H]1C[C@H]2[C@@H]3CCC4=CC(=O)C=C[C@]4(C)[C@@]3(F)[C@@H](O)C[C@]2(C)[C@@]1(O)C(=O)CO [DEXA, dexamethasone], which body weight ([1]; homoegonol study) is on record?
A: The body weight was 19.98 ± 0.39 g.

Q: What about the body weight ([1]; styraxlignolide A study) of the same compound?
A: The body weight was 20.49 ± 0.29 g.

Q: And the Penh values ([2]; methacholine 0 mg/ml)?
A: Its Penh values is 0.4407 ± 0.0422.

Q: What about the Penh values ([2]; methacholine 12.5 mg/ml) of the same compound?
A: The Penh values was 0.7768 ± 0.1475.

Q: And the Penh values ([2]; methacholine 25 mg/ml)?
A: Its Penh values is 0.8900 ± 0.1619.

Q: And the Penh values ([2]; methacholine 50 mg/ml)?
A: Its Penh values is 1.1036 ± 0.4048.

Q: And the “Number of cells, Other inflammatory cells” value ([3]; homoegonol study, 3 mg/kg PO, bronchoalveolar lavage fluid)?
A: Its value is 18.72 ± 2.2919 ×10^3 cells/mouse.

Q: And the “numbers of eosinophils in bronchoalveolar lavage fluid” value [3, 13]?
A: The value was 41.88±9.08.

Q: And the “serum ALT” value [4]?
A: The value was 274.67±12.12 IU/L.

Q: What about the “serum AST” value [4] of the same compound?
A: The value was 369.33±31.27 IU/L.

Q: And the “ratio of goblet cells to bronchiolar epithelial cells” value [5]?
A: The value was 34.96±6.86%.

Q: What about the “area of a fibrosis stained region per 100 μm of a basement membrane perimeter” value [6] of the same compound?
A: The value was 639.59±106.96 μm^2.

Q: And the “TGF-β1 concentrations in bronchoalveolar lavage fluid” value [7]?
A: Its value is 159.2813 ± 12.9548 pg/mL.

Q: What about the “IL-17 concentrations in bronchoalveolar lavage fluid” value [8] of the same compound?
A: Its value is 48.8409 ± 4.3738 pg/mL.

Q: And the “Number of cells, Eosinophils” value [9, 14]?
A: Its value is 1.32±0.49 ×10^3 cells/mouse.

Q: And the “Number of cells, Total inflammatory cells” value [9, 14]?
A: The value was 20.04±4.7744 ×10^3 cells/mouse.

Q: And the “numbers of total inflammatory cells in bronchoalveolar lavage fluid” value [9, 13]?
A: The value was 153.48±19.69.

Q: What about the “Total IgE level in bronchoalveolar lavage fluid” value ([10]; bronchoalveolar lavage fluid) of the same compound?
A: The value was 24.3617 ± 4.8149 ng/mL.

Q: What about the “Total serum IgE level” value ([10]; serum, Table 2) of the same compound?
A: The value was 9.14 ± 2.0591 µg/mL.

Q: What about the “Inflammatory index, peribronchiolar” value [11, 15] of the same compound?
A: Its value is 0.78±0.1315.

Q: What about the “Inflammatory index, perivascular” value [11, 15] of the same compound?
A: The value was 0.44±0.1571.

Q: And the peribronchiolar inflammatory index [11, 13]?
A: The peribronchiolar inflammatory index was 1.46±0.26.

Q: What about the “Goblet cells %/bronchial epithelial cell unit” value [12] of the same compound?
A: The value was 18.7828±5.9397%.
